Reference: ChEMBL document CHEMBL5465560, “Selectivity Literature for EUbOPEN Chemogenomic Library” (2024)
Blank lines part the entries; values can stand above or below the compound they belong to.

Key:
[1] = test system: Tyrosine-protein kinase ABL1 (Homo sapiens), P00519 [H396P]; conditions: at 10 µM
[2] = biological target: T1, Dual specificity tyrosine-phosphorylation-regulated kinase 2 (Homo sapiens) (UniProt Q92630); assay: Selectivity interaction (KinomeScan (DiscoverX)) EUB0001049a DYRK2; conditions: at 1 µM
T1 sequence (whole entry): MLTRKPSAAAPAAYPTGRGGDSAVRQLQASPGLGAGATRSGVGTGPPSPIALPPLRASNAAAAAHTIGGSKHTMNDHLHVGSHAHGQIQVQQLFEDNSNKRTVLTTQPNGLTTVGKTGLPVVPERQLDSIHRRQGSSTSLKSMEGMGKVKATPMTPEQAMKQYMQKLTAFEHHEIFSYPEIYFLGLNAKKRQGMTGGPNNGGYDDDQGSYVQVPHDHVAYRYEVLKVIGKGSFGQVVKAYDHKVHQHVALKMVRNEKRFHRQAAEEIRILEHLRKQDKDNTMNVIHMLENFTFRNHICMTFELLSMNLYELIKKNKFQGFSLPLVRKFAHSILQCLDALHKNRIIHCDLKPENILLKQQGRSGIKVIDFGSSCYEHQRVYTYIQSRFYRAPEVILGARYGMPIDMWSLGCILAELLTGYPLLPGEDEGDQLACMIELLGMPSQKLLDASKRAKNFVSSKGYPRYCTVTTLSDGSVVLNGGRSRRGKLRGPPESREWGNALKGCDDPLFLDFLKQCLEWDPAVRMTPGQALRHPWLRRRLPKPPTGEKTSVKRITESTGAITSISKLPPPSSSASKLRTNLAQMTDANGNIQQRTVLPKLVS

[3] = biological target: Mitogen-activated protein kinase 6 (Homo sapiens) (UniProt Q16659); assay: Selectivity interaction (KinomeScan (DiscoverX)) EUB0001049a MAPK6; conditions: at 1 µM
[4] = biological target: Protein arginine N-methyltransferase 8 (Homo sapiens, UniProt Q9NR22); conditions: at 1 µM
[5] = biological target: Histone-lysine N-methyltransferase SETD2 (Homo sapiens) (UniProt Q9BYW2); conditions: at 1 µM
[6] = biological target: T2, Tyrosine-protein kinase ITK/TSK (Homo sapiens) (UniProt Q08881); assay: Selectivity interaction (Kinase panel (Z-LYTE Assay)) EUB0001632a ITK; conditions: at 10 µM
T2 sequence (whole entry): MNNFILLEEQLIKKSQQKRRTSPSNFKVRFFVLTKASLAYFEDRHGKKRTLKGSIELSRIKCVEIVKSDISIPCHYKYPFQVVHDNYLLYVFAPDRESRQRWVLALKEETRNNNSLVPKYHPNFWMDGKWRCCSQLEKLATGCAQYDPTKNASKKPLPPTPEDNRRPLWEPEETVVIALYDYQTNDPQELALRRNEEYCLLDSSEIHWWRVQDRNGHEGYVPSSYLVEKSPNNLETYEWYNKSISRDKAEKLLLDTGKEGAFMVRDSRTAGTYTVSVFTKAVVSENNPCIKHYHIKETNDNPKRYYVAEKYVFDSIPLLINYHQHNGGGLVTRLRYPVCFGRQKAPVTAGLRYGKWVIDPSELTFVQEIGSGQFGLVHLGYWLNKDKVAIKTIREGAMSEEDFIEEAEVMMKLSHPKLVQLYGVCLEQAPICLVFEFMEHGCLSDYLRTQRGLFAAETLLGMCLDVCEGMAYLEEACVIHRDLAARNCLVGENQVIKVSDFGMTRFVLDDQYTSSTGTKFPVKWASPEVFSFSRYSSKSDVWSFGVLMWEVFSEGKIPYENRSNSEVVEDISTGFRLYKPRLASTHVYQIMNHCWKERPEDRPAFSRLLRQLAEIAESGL

[7] = biological target: Casein kinase I isoform gamma-3 (Homo sapiens) (UniProt Q9Y6M4); assay: Selectivity interaction (KinomeScan (DiscoverX)) EUB0000595a CSNK1G3; conditions: at 10 µM
[8] = biological target: T3, Mitogen-activated protein kinase 12 (Homo sapiens) (UniProt P53778); assay: Selectivity interaction (KinomeScan (DiscoverX)) EUB0001619a MAPK12; conditions: at 1 µM
T3 sequence (whole entry): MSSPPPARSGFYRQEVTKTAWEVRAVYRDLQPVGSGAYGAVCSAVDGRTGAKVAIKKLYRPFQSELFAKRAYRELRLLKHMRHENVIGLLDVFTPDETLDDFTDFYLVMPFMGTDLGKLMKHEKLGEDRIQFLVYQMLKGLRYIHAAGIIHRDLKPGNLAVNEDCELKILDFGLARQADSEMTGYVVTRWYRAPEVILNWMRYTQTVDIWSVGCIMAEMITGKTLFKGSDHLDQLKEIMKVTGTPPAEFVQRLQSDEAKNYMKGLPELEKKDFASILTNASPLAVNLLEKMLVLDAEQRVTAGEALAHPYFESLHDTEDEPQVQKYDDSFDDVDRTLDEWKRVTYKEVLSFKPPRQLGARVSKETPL

[9] = biological target: Serine/threonine-protein kinase WNK2 (Homo sapiens) (UniProt Q9Y3S1); assay: Selectivity interaction (ActivX KiNativ screen (ex vivo kinase selectivity in human PBMCs)) EUB0001619a WNK2; format: cell-based; conditions: PBMC, at 1 µM
[10] = biological target: Beta-2 adrenergic receptor (Homo sapiens, UniProt P07550); assay: Selectivity interaction (Panel of kinases, GPCRs, ion channels and transporters (enzymatic assay)) EUB0000223bCl ADRB2
Chain of Beta-2 adrenergic receptor (P07550 whole entry, looked up): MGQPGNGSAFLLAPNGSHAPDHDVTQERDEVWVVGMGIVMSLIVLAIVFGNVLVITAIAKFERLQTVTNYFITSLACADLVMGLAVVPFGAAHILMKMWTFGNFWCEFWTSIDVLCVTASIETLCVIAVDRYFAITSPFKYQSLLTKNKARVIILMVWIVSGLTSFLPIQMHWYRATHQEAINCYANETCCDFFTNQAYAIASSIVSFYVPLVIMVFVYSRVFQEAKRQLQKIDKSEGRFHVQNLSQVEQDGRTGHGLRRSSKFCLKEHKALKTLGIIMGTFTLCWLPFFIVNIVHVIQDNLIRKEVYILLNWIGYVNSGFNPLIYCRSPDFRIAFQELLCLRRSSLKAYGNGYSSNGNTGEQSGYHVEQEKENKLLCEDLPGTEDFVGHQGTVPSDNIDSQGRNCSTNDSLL

Chain of Casein kinase I isoform gamma-3 (Homo sapiens) (Q9Y6M4 whole entry, looked up, canonical isoform): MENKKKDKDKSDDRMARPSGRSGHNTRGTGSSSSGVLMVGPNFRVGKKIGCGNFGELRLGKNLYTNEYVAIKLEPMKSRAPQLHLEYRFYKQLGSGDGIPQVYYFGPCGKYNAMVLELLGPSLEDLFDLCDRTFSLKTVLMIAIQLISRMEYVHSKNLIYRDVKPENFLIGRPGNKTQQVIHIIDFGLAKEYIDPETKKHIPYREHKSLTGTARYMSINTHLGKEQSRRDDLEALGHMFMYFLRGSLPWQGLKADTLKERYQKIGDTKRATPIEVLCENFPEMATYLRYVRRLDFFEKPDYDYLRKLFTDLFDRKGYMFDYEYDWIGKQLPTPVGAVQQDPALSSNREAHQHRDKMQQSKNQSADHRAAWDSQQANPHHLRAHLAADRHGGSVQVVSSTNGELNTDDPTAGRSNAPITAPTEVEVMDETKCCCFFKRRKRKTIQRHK
Chain of Histone-lysine N-methyltransferase SETD2 (Homo sapiens) (Q9BYW2 whole entry): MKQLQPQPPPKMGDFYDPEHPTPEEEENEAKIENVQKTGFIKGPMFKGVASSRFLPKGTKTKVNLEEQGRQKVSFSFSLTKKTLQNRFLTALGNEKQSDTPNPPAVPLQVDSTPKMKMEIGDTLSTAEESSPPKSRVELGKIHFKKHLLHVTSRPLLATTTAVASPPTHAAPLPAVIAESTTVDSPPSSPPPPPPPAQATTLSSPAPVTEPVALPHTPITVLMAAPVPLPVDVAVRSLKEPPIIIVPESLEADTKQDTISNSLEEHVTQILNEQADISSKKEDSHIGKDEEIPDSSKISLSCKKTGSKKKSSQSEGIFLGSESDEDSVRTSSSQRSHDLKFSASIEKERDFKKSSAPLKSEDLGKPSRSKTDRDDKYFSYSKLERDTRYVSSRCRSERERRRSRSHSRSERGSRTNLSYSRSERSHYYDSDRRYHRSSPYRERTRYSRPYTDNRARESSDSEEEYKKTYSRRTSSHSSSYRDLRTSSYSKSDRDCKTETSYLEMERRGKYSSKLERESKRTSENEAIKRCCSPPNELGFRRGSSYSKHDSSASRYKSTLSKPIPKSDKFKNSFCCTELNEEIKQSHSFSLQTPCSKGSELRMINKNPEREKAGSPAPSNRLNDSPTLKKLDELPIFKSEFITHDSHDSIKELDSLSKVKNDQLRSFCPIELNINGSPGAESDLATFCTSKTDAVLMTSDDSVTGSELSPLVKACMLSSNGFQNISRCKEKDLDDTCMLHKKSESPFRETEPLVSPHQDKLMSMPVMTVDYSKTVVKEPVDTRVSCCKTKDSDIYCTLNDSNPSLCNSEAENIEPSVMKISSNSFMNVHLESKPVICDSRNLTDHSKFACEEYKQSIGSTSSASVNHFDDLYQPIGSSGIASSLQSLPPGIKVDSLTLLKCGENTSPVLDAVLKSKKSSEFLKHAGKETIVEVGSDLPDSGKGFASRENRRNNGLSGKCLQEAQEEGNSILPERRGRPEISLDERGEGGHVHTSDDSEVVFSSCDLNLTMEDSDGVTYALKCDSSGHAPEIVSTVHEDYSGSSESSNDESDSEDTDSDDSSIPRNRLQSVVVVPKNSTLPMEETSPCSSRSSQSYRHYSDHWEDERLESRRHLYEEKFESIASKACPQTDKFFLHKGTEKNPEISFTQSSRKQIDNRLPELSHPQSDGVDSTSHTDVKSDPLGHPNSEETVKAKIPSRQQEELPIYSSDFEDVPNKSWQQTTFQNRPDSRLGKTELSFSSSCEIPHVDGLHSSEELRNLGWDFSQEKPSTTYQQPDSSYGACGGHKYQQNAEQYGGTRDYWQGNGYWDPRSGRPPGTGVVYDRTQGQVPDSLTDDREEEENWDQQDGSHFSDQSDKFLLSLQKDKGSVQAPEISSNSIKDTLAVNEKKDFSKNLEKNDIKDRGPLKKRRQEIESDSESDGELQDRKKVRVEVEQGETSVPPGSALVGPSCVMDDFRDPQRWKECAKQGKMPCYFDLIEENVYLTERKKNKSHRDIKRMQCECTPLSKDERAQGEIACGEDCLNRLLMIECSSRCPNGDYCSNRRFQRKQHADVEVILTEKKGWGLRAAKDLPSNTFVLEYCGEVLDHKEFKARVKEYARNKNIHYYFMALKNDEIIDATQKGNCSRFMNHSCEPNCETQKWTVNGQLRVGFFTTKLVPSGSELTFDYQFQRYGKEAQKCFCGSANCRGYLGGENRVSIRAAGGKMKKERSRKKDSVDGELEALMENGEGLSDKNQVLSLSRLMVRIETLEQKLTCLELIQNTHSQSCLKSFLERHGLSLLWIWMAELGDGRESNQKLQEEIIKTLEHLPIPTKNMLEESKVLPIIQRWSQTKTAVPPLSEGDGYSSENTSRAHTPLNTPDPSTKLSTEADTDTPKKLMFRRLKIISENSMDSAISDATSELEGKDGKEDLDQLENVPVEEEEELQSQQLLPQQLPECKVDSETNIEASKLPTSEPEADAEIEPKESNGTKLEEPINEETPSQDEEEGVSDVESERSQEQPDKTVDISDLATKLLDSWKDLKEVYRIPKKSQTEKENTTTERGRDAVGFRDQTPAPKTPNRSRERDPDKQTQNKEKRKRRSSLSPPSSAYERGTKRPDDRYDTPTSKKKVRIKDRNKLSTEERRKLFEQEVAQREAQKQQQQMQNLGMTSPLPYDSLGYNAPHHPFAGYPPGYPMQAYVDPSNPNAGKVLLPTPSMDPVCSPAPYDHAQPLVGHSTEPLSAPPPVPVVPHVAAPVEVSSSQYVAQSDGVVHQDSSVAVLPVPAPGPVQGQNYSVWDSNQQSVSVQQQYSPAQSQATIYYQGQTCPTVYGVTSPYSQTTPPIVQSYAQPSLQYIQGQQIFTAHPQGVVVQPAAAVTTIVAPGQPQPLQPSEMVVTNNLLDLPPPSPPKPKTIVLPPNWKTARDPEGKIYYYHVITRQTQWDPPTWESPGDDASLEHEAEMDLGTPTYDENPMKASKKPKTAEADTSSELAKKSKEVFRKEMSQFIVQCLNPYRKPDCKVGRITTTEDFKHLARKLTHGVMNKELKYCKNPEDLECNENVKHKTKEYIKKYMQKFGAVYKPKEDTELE
Chain of Mitogen-activated protein kinase 6 (Homo sapiens) (Q16659 whole entry): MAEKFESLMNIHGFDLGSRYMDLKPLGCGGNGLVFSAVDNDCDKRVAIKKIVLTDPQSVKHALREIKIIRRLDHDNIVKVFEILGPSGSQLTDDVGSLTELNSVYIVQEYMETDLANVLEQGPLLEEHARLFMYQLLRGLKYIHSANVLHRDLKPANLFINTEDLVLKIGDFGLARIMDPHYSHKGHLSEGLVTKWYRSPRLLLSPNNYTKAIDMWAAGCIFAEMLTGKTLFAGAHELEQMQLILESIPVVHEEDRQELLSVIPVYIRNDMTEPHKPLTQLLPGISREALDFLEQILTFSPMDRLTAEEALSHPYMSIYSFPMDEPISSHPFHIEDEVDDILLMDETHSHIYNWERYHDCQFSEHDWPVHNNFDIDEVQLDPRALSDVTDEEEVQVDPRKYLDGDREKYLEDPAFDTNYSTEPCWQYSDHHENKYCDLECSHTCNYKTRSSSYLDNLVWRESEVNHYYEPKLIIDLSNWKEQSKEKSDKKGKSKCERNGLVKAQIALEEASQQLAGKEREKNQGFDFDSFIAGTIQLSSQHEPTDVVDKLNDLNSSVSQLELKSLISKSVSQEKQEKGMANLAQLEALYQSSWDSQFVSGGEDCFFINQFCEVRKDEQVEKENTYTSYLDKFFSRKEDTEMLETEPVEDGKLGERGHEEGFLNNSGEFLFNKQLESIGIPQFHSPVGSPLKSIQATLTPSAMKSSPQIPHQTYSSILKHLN
Chain of Protein arginine N-methyltransferase 8 (Q9NR22 2-394 limits assumed): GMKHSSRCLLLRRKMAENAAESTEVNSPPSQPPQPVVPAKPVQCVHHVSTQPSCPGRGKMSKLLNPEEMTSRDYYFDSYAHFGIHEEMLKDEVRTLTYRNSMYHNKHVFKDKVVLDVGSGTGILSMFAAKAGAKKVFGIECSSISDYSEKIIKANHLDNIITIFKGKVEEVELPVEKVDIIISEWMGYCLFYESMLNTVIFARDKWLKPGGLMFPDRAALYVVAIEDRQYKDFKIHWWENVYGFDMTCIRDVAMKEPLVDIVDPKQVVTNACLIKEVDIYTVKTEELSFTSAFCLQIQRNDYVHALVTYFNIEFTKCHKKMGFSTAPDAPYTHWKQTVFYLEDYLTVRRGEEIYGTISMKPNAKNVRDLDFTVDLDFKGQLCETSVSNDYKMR

SMILES: Cc1cc([C@@H](C)Nc2ccccc2C(=O)O)c2nc(N3CCOCC3)cc(=O)n2c1 [AZD-6482]
% of control [1]: 87%

SMILES: COc1cc(Nc2nc(C)cc(-c3cnn4nc(OC)ccc34)n2)cc(C(F)(F)F)c1
% of control [2]: 79% | % of control [3]: 92%

% activity [4]: > 90% | % activity [5]: > 90%
SMILES: CNCCN1CCC(c2cc(CN(C)C(=O)c3cccc(Oc4ccccc4)c3)ccn2)CC1

% of control [6]: -0.395%
SMILES: Cn1cc(-n2cnc3c(NCc4nc5cc(Cl)c(Cl)cc5[nH]4)nc(N4CCOCC4)nc32)cn1

SMILES: COCC(=O)NC/C=C/c1ccc2ncnc(Nc3ccc(Oc4ccc(C)nc4)c(C)c3)c2c1 [CP-724714]
% of control [7]: 100%

SMILES: N#Cc1cccc(-c2c[nH]c3ncnc(N4CCOCC4)c23)c1
% of control [8]: 100% | % of inhibition [9]: -6%

SMILES: COc1cc(C(=O)N2CC[C@@H](O)[C@@H](N)C2)cc2nc(-c3cc4ccccc4n3CC3CC3)n(C)c12
pXC50 [10]: < 4.5 M
